Laboratory results reported in US20240043483A1, “TAU BIOSENSOR CELL LINES” (THE BOARD OF REGENTS OF THE UNIVERSITY OF TEXAS SYSTEM, priority 2020, published 2024).

Tests used:
Format in all cases: cell-based, human
[1] = tested on: P301S v2L HEK biosensor cells; test: Seeding assay, percent FRET positivity by flow cytometry, v2L biosensor cells
Source text: A lentiviral FM5-YFP plasmid containing the tau segment 246 to 378 with the P301S mutation, was used as a template, where the human ubiquitin C (Ubc) promoter was replaced with a human cytomegalovirus (CMV) promoter, and the YFP sequence was replaced with a mCerulean 3 or mClover3 coding sequences (see FIGS. 1 and 2). The sequence linking the tau segment and the coding sequence of the fluorophore (Cer or Co) was optimized to the following sequence: GSAGSAAGSGEF (SEQ ID NO:41). Low passage HEK293T cells (P5) were thawed and passaged with antibiotic free media twice before being co-administration of lentivirus encoding tau RD(P301S)-Clo/Cer tau lentivirus. After four passages, single cells were cell sorted by FACS based on low or high signal for both mCerulean3 and mClover3, termed version 2 low (v2L) or version 2 high (v2H). Monoclonal colonies were expanded and characterized as described.
Wild-type full-length (2N4R) tau was synthesized and purified. […]
(§1) P301S4 or P301S v2L or v2H HEK biosensor cells were plated in 96-well plates at 20,000 cells per well 24 hours before treatment. dilutions of recombinant tau fibrils or brain homogenates in Opti-MEM (Thermo Fisher), 30 μl total volume, or immunoprecipitation eluents 120 μl total volume, were allowed to come to room temperature. […] After 48 hours, cells were trypsinized and fixed in 2% PFA and suspended in flow cytometry buffer (1×HBSS, 1% FBS, 1 mM EDTA). percent FRET positivity was determined of each well by flow cytometry.
(§2) The sensitivity of v2L and v2H cells was first compared to the original line. synthetic fibrils based on exposure of recombinant tau protein to heparin were created. The fibrils were incubated with cells in the absence or presence of Lipofectamine 2000 for 48 h and quantified the percentage of FRET-positive cells using flow cytometry to determine the lower limit of detection. […] In the absence of cationic lipid reagent, 1.6 pM tau were detected in v2L cells and 0.78 pM tau in v2H cells (FIGS. 5A and 5B). […]

[2] = tested on: P301S v2H HEK biosensor cells; test: Seeding assay, percent FRET positivity by flow cytometry, v2H biosensor cells; conditions: for lower limit of detection (LLD), lowest quantity producing FRET positivity statistically distinguishable from background: v2H, T-test p<0.05
P301S v1 biosensor cells = test: Seeding assay, percent FRET positivity by flow cytometry, v1 (original) biosensor cells; conditions: T-test p<0.05
Protocol: Wild-type full-length (2N4R) tau was synthesized and purified. 8 μM purified recombinant tau was incubated with 8 uM heparin and 10 mM DTT at 37 C for 48 h in 10 mM HEPES, 100 mM NaCL, PH 7.4. The quality of fibrils was verified by transmission electron microscopy.
as §1, §2

HEK biosensor cells = test: Immunoprecipitation from spiked control CSF followed by seeding assay; conditions: 1 ml control CSF spiked
Protocol: 50 μl of Dynabeads Protein A (Thermo Fisher) were washed per the manufacturer protocol and incubated with 10 μg of polyclonal antibody (TauA, Diamond Lab) against the first microtubule-binding repeat of tau for 1 hour at room temperature. washed beads were then added to 1 or 5 ml of human CSF and incubated with rotation overnight at 4° C. Captured proteins were eluted in low pH elution buffer (Pierce) and neutralized the buffer with 1:10 1M Tris pH 8.5 with a final volume of 120 μl.
as §1
To determine the lower limit of detection of tau seeds in CSF, control CSF were spiked with small quantities of AD frontal cortex protein (brain AD1) or recombinant tau fibrils. the AD seeds were concentrated and purified using a rabbit polyclonal antibody directed against tau RD (TauA).

In the case of “recombinant tau fibrils: Wild-type full-length (2N4R) recombinant tau incubated with heparin and DTT at 37 C for 48 h to form fibrils”, the “tau detected (lower limit of detection)” value ([1]; v2L cells, absence of cationic lipid reagent, FIGS. 5A and 5B) is reported as 1.6 pM, the “lower limit of detection (detected, monomer equivalent)” value ([1]; v2L cells, presence of Lipofectamine 2000, 48 h, FIGS. 4A and 4B) is reported as 10 fM and the “sensitivity versus the original line” value ([1]; v2L lines versus original biosensor line) is reported as “approximately 10 fold”. The “tau detected (lower limit of detection)” value ([2]; v2H cells, absence of cationic lipid reagent, FIGS. 5A and 5B) was 0.78 pM, the “lower limit of detection (detected, monomer equivalent)” value ([2]; v2H cells, presence of Lipofectamine 2000, 48 h, FIGS. 4A and 4B) was 32 aM and the “sensitivity versus the original biosensor cell line” value ([2]; v2H line versus original biosensor line) was “more than 300 fold”. The “lower limit of detection (LLD), lowest quantity producing FRET positivity statistically distinguishable from background” value (from here on “lower limit of detection (LLD)”) ([2]; Lipofectamine seeding) was 32 amol per sample, the “lower limit of detection (LLD)” value ([2]; naked seeding) was 0.78 pmol and the “lower limit of detection (LLD)” value (P301S v1 biosensor cells; v1, Lipofectamine seeding) was 10 fmol per sample. For the same substance, the “lower limit of detection (LLD)” value (P301S v1 biosensor cells; v1, naked seeding) was 1.6 pmol, the “seeding activity detected in spiked CSF after IP, lowest level (monomer equivalent)” value (HEK biosensor cells; IP with TauA antibody, FIG. 7C) was 100 attomolar and the “seeding detected from spiked samples down to (tau monomer equivalent)” value (HEK biosensor cells; IP, FIG. 7) was 100 attomoles.
